Assay results: publication PMC6553477 (Journal of pharmaceutical sciences, 2018)
Several values for one entry are separate records, joined by “and”; a condition that tells them apart may be missing. Equal values may be shown once. Read-outs that look alike come from different tables or passages of the source. Marks after values point to notes of the source that are not given here.

Assays:
[1] = cited from earlier work; for LNMC concentration 24 h / LNMC concentration 192 h: in vivo, sc
[2] = for concentration at 192 h: concentration in LNMCs at 192 h after injection
[3] = PBMC intracellular drug concentrations after single subcutaneous injection; conditions: for fold higher AUCPBMC, DcNP versus free drug: ATV-RTV-TFV DcNP compared with free form; for fold higher AUCPBMC, DcNP versus free drug / AUC: macaques; for AUC: monkey, sc, AUCPBMC, ATV-RTV-TFV DcNP, single subcutaneous dose, geometric mean (95% CI)
[4] = Mechanism-based pharmacokinetic; format: in vivo, Macaca nemestrina; conditions: MBPK model
HIV [5] = conditions: read-out: in vivo EC50; nonhuman primates; cited from earlier work
[6] = in vivo, sc; for time concentrations were sustained in plasma: macaque (Macaca nemestrina)
[7] = in vivo
[8] = for MBRT / CL/F: ATV-RTV-TFV DcNP; for MBRT / half-life: plasma; for half-life: monkey, in vivo
[9] = Drug association efficiency to DcNP by equilibrium dialysis; format: physicochemical; conditions: ATV-RTV-TFV DcNP, DSPC-DSPE-mPEG2000 (9:1)
[10] = in vivo, sc, cited from earlier work
[11] = monkey, in vivo, sc; cited from earlier work
HIV [12] = conditions: read-out: in vitro effective concentration that produces 90% of the maximal effect (EC90); reported in vitro; cited from earlier work
HIV-1 protease = conditions: reported; cited from earlier work
in vivo = conditions: Macaca nemestrina (macaque), sc, LNMC/plasma ratio 192 h
[13] = TLC-ART 101, subcutaneous, macaques, 24 h
[14] = TLC-ART 101, subcutaneous, macaques, 192 h
[15] = macaque (Macaca nemestrina), sc
[16] = ATV-RTV-TFV DcNP compared with free form, macaques
[17] = single subcutaneous dose, macaques, geometric mean (95% CI)
[18] = sc, Terminal t1/2, ATV-RTV-TFV DcNP, single subcutaneous dose, macaques, geometric mean (95% CI)
[19] = ATV-RTV-TFV DcNP compared with free form, macaques, 24 h
[20] = ATV-RTV-TFV DcNP, subcutaneous, macaques, 24 h
[21] = ATV-RTV-TFV DcNP versus TLC-ART 101

| SMILES | LNMC concentration 24 h [1] | LNMC concentration 192 h [1] | fold higher AUCPBMC, DcNP versus free drug [3] [fold] | K07, rate of elimination ([4]; Atazanavir-DcNP) | V5_DcNP, central compartmental apparent volume for DcNP ([4]; Atazanavir-DcNP) | V7_Free, central compartmental apparent volume for free drug ([4]; Atazanavir-DcNP) | k21, rate of DcNP absorption into the first delayed compartment ([4]; Atazanavir-DcNP) | k31, rate of DcNP absorption into the second delayed compartment ([4]; Atazanavir-DcNP) | k41, rate of DcNP absorption into the third delayed compartment ([4]; Atazanavir-DcNP) | k75, rate of degradation of DcNP into free drug between central compartments ([4]; Atazanavir-DcNP) | tlag1, delayed constant of delayed compartment 1 ([4]; Atazanavir-DcNP) | tlag2, delayed constant of delayed compartment 2 ([4]; Atazanavir-DcNP) | tlag3, delayed constant of delayed compartment 3 ([4]; Atazanavir-DcNP) | time concentrations were sustained in plasma [6] | time drug concentration in PBMCs was sustained [7, 15] | fold higher plasma AUC, DcNP versus free drug [8, 16] [fold] | MBRT [8, 17] | CL/F [8, 17] | half-life [8, 18] [days] | % Association to DcNP [9] | other results |
| --- | --- | --- | --- | --- | --- | --- | --- | --- | --- | --- | --- | --- | --- | --- | --- | --- | --- | --- | --- | --- | --- |
| C[C@H](Cn1cnc2c(N)ncnc21)OCP(=O)(O)O [TFV, 9-(2-Phosphonyl-methoxypropyly)adenine] | 25 (14-47) μM | 19 (3.6-280) μM | 5 | 0.4 (0.08-2) 1/h | 0.7 (0.5-0.9) L/kg | 1.1 (0.8-1.3) L/kg | 0.05 (-) 1/h | 0.1 (-) 1/h | 0.15 (-) 1/h | 0.026 (0.009-0.03) 1/h | 1 h | 23 (-) h | 106 (76-132) h | up to 14 days | up to 192 h | 35 | 128 (65-254) h | 0.004 (0.002-0.015) L/[h·kg] | 2.75 | 10 ± 0.8% and 10 ± 1% | LNMC/PBMC ratio 24 h [1, 13]: 0.93 (0.39-2.3); LNMC/plasma ratio 24 h [1, 13]: 3 (1.5-5.3); LNMC/PBMC ratio 192 h [1, 14]: 4.4 (0.45-340.0); LNMC/plasma ratio 192 h [1, 14]: 6.8 (1.4-75); LNMC/PBMC ratio 24 h ([2]; free drug combination, subcutaneous, macaques, 24 h): 1.8^d; concentration at 192 h ([2]; macaque (Macaca nemestrina), in vivo, sc, ATV-RTV-TFV DcNP, subcutaneous, primates, 192 h): 130 nM; k76, rate of absorption of free drug ([4]; Atazanavir-DcNP): 1.7 (0.6-2.5) 1/h; k78, rate from periphery to central free compartment ([4]; Atazanavir-DcNP): 0.06 (-) 1/h; k87, rate from central free compartment to periphery ([4]; Atazanavir-DcNP): 0.02 (-) 1/h; EC50 (HIV [5]): 49 nM; AUC (plasma, extrapolated to infinity) ([6]; monkey): 3057 (1029-9078) h·μM; AUCPBMC ([7]; monkey, sc): 1134 (588-1554) h·μM; fold longer MBRT, DcNP versus free drug [8, 16]: 41 fold; fold longer apparent t1/2, DcNP versus free drug [8, 16]: 7 fold; fold lower CL/F, DcNP versus free drug [8, 16]: 23 fold |
| Cc1cccc(C)c1OCC(=O)N[C@@H](Cc1ccccc1)[C@@H](O)C[C@H](Cc1ccccc1)NC(=O)[C@H](C(C)C)N1CCCNC1=O [LPV, lopinavir] |  |  |  |  |  |  |  |  |  |  |  |  |  |  |  |  |  |  |  |  | AUC (plasma, extrapolated to infinity) [10]: 4.8 (4.2-4.6)^c h·μM; CL/F ([10]; monkey): 5 L/[h·kg]; Terminal t1/2 ([10]; monkey): 8.7 (5.3-10.4)^c h; AUCPBMC [11]: 22 (10-33)^c h·μM |
| COC(=O)N[C@H](C(=O)N[C@@H](Cc1ccccc1)[C@@H](O)CN(Cc1ccc(-c2ccccn2)cc1)NC(=O)[C@@H](NC(=O)OC)C(C)(C)C)C(C)(C)C [ATV, atazanavir] |  |  | 33 | 0.29 (-) 1/h | 1259^a (569-1680) L/kg | 113 (97-133) L/kg | 0.15 (0.1-0.3) 1/h | 0.05 (-) 1/h | 0.7 (-) 1/h | 0.04^a (0.01-0.06) 1/h | 0.25 (-) h | 16 (9-25) h | 440 (336-520) h | up to 14 days | up to 336 h | 5 | 650 (370-1230) h | 11^a (8-13) L/[h·kg] | 19.5 | 99 ± 8.2% and 99 ± 8% | EC90 (HIV [12]): 13 nM; fold higher intracellular LNMC concentration at 24 h, DcNP versus free drug [2, 19]: 3 fold; fold lower LNMC-to-plasma ratio at 24 h, DcNP versus free drug [2, 19]: 4 fold; fold higher intracellular LNMC concentration at 192 h, DcNP versus free drug ([2]; ATV-RTV-TFV DcNP compared with free form, macaques, 192 h): 3 fold; intracellular LNMC concentration at 192 h ([2]; ATV-RTV-TFV DcNP, macaques, 192 h): 0.09 mμM; LNMC concentration 24 h [2, 20]: 0.10 (0.04-0.24) μM; LNMC/PBMC ratio 192 h ([2]; ATV-RTV-TFV DcNP, subcutaneous, macaques, 192 h, n=2): 2.4^b; intracellular LNMC concentration at 192 h ([2]; free drug, macaques, 192 h): 0.03 mμM; concentration at 24 h ([2]; macaque (Macaca nemestrina), lymph node mononuclear cells (LNMC), sc, concentration in LNMCs at 24 h after injection, ATV-RTV-TFV DcNP, subcutaneous, primates, 24 h): 100 nM; concentration at 192 h ([2]; macaque (Macaca nemestrina), lymph node mononuclear cells (LNMC), sc, ATV-RTV-TFV DcNP, subcutaneous, primates, 192 h): 90 nM; fold higher PBMC exposure (AUCPBMC) of ATV than LPV ([3]; ATV-RTV-TFV DcNP versus TLC-ART 101, macaques): 5.5 fold; AUC ([3]; PBMC (intracellular)): 435 µM·h; fold higher V5_DcNP for ATV than LPV [4, 21]: 180 fold; fold lower k75 for ATV than LPV [4, 21]: 18 fold; fold higher antiretroviral activity compared with several other commercialized protease inhibitors (HIV-1 protease): 2- to 20 fold; fold longer MBRT, DcNP versus free drug [8, 16]: 116 fold; fold lower CL/F, DcNP versus free drug [8, 16]: 4 fold; fold higher CL/F, free ATV compared with free LPV ([8]; free drugs, macaques): 9 fold; fold lower AUC, free ATV compared with free LPV ([8]; free drugs, macaques): 8 fold; half-life ([8]; terminal half-life, DcNP ATV, macaques (Table 2)): ~20 days |
| CC(C)c1nc(CN(C)C(=O)N[C@H](C(=O)N[C@@H](Cc2ccccc2)C[C@H](O)[C@H](Cc2ccccc2)NC(=O)OCc2cncs2)C(C)C)cs1 [RTV, ritonavir] | 6.3^a (4.4-8.5) μM | 1.00 (0.06-2.00) μM |  | 0.08 (0.03-0.12) 1/h | 67 (22-94) L/kg | 79 (56-122) L/kg | 0.40 (0.35-0.46) 1/h | 0.05 (-) 1/h | 0.5 (-) 1/h | 0.19 (0.06-0.26) 1/h | 0.3 (-) h | 41 (35-46) h | 186 (169-199) h | up to 14 days | up to 336 h |  | 110 (46-266) h | 4 L/[h·kg] | 3.04 | 92 ± 7.1% and 92 ± 7% | LNMC concentration 24 h [2, 20]: 0.40^a (0.06-3.00) μM; LNMC concentration ([2]; RTV in ATV-RTV-TFV DcNP, macaques, unit as printed in text (Table 4: 24 h)): 0.4 mM; AUC ([3]; PBMC (intracellular)): 85 µM·h; AUC ([3]; PBMC, PBMC intracellular): 79 µM·h; Kp at 192 h (in vivo): 23; last PBMC concentration timepoint detected ([7]; macaque (Macaca nemestrina)): 48 h |
